The values below are quoted from earlier work in US12102063B2 (SYNEXIS LLC, priority 2017, dated 2024).

Series [1] has as its system bacterial counts on eggshells. As to conditions: 3% solution combined with ultraviolet light; cited from earlier work.
In a further series the test system is Salmonella. As to conditions: […] solution with vacuum and surfactant; cited from earlier work.
A further series relates to Salmonella typhimurium. As to conditions: eggs dipped twice in 6% H2O2 solution; cited from earlier work.

On to `OO` [H2O2, hydrogen peroxide], for which, in series [1], the “reduction in bacterial counts (cfu/egg)” value is recorded as at most 3 log. The “treated eggs that remained contaminated” value in the series on Salmonella was 30%. In the series with Salmonella typhimurium, the “reduction of the number of Salmonella in eggshell membranes” value was 95% and the “reduction of the numbers of positive eggs” value is listed as 55%.
